From article PMC6982040, “A Purified Aspartic Protease from Akkermansia Muciniphila Plays an Important Role in Degrading Muc2” (International Journal of Molecular Sciences, 2019)
Square brackets hold non-standard residues; d marks the D form. Peptide text beside a SMILES is read from it. * marks the point of attachment. Sta = CC(C)C[C@H](N)[C@@H](O)CC(=O)O; Isovaleryl = CC(C)CC(=O)*

Molecular target: T1, Amuc_1434* (Akkermansia muciniphila, UniProt B2UKY3)
T1 construct: recombinant, 6xHis-tag (N-terminal as printed; Pet25b-His vector), E. coli Rosetta (DE3), Ni-Sepharose; ~50 kDa on SDS-PAGE; b10 says amplified from genomic DNA, b49 says gene synthesized
T1 sequence (B2UKY3 22-326): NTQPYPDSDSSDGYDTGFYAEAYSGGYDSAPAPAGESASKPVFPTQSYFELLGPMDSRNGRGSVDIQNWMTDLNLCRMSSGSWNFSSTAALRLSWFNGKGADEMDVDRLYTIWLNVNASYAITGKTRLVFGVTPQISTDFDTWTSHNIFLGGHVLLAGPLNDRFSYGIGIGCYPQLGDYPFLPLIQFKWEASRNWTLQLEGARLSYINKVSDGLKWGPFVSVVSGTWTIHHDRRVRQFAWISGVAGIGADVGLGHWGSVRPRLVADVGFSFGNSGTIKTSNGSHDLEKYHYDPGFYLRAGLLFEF
Assay: hemoglobin hydrolysis, UV absorbance at […] nm
Format: biochemical
Settings: read-out: Relative Activity (%)

activity at 10 µM [%] | activity at 20 µM [%] | SMILES
88.5 ± 4.7 |  | CC(C)C[C@H](NC(=O)[C@@H]1O[C@H]1C(=O)O)C(=O)NCCCCN=C(N)N [E-64]
 | 40.1 ± 6.7 | CC(C)CC(=O)N[C@H](C(=O)N[C@H](C(=O)N[C@@H](CC(C)C)[C@@H](O)CC(=O)N[C@@H](C)C(=O)N[C@@H](CC(C)C)[C@@H](O)CC(=O)O)C(C)C)C(C)C [pepstatin A] (Isovaleryl-VV[Sta]A[Sta]-OH)
